Structures can show the parent of a compound that is named as a salt.
Columns and labels:
LacHU1 = system: T1, LacHU1; experiment: initial-rate oxidation assay, Michaelis-Menten fit; type: biochemical, Alternaria sp. HU; conditions: free enzyme; apparent constant; read-out: Kinetic Parameters / KM, μM / LacHU1
T1 construct: native secreted enzyme purified from culture liquid; signal peptide of 18 residues
Description: initial-rate oxidation assay, Michaelis-Menten fit on LacHU1

LacHU2 = system: T2, LacHU2; experiment: initial-rate oxidation assay, Michaelis-Menten fit; type: biochemical, Alternaria sp. HU; conditions: free enzyme; apparent constant; read-out: Kinetic Parameters / KM, μM / LacHU2
T2 construct: native secreted enzyme purified from culture liquid; signal peptide of 18 residues
Description: initial-rate oxidation assay, Michaelis-Menten fit on LacHU2

Km (LacHU1)	SMILES	Km (LacHU2)
50 ± 3 µM	O=C(O)/C=C/c1ccc(O)c(O)c1 [Caffeic acid]	400 ± 30 µM
15 ± 1 µM	O=c1c(O)c(-c2ccc(O)c(O)c2)oc2cc(O)ccc12 [Fisetin]	
2 ± 0.3 µM	O=c1c(O)c(-c2cc(O)c(O)c(O)c2)oc2cc(O)cc(O)c12 [Myricetin]	
1 ± 0.1 µM	COc1cc(C=NN=Cc2cc(OC)c(O)c(OC)c2)cc(OC)c1O [Syringaldazine]	
40 ± 0.5 µM	COc1cc(C(=O)O)cc(OC)c1O [Syringic acid]	

Second part, the compound before the results:

SMILES	Km (LacHU1)	Km (LacHU2)
COc1cccc(OC)c1O [2,6-DMP]	10 ± 2 µM	4300 µM
OCCN1c2ccccc2Oc2ccccc21 [2-(10H-phenoxazin-10-yl)ethanol]	40 ± 10 µM	200 ± 50 µM
CCn1c(=NN=c2sc3cc(S(=O)(=O)O)ccc3n2CC)sc2cc(S(=O)(=O)O)ccc21 [ABTS, 2,2’-azino-bis(3-ethylbenzothiazoline-6-sulfonic acid) diammonium salt]	60 ± 10 µM	5600 µM
Oc1ccccc1O [Catechol]		20000 µM
O=C(/C=C/c1ccc(O)c(O)c1)O[C@@H]1C[C@](O)(C(=O)O)C[C@@H](O)[C@H]1O [Chlorogenic acid]		90 ± 40 µM
COc1cc(/C=C/C(=O)O)ccc1O [Ferulic acid]	50 ± 4 µM	230 ± 30 µM
Oc1ccc(O)cc1 [Hydroquinone]		13000 µM
CN(C)CCCN1c2ccccc2Sc2ccccc21 [Promazine hydrochloride]		2600 µM
O=c1c(O)c(-c2ccc(O)c(O)c2)oc2cc(O)cc(O)c12 [Quercetin]	2 ± 0.4 µM	
Nc1ccc(N)cc1 [p-Phenylenediamine]		3600 µM
